# Results published in patent US11000601B2, “Conjugated biological molecules, pharmaceutical compositions and methods” (OBI Pharma, Inc., priority 2016, dated 2021).
# “And” between values parts separate entries of the source, which are not always exact repeats. Equal entries are not always repeated. Square brackets hold non-standard residues; d marks the D form. Peptide text beside a SMILES is read from it. * marks the point of attachment. Dolaproine = CO[C@@H]([C@@H]1CCCN1)[C@@H](C)C(=O)O; Dil = CC[C@H](C)[C@H](NC)[C@@H](CC(=O)O)OC; X1 = C[C@@H](N*)[C@@H](O)c1ccccc1; NMeV = CN[C@H](C(=O)O)C(C)C
# Test: Body weight, mortality and signs of overt toxicity in MCF-7 implanted female nude (nu/nu) mice
# Assay type: in vivo, mouse
# Details: for Body Weight (g), individual animals No. 1-6: single animal; for Body Weight (g), individual mice: individual mice No. 1-6
# Experimental: In a xenograft tumor model of human breast adenocarcinoma, MCF-7 (ATCC HTB-22) cells were subcutaneously (SC) implanted (2.0×10^7 cells in 1:1 matrigel/media mixture at 0.2 mL/mouse) into the right flank of female athymic (nu/nu) nude mice. Supplemental injections of estradiol cyclopentyl propionate (100 μg/mouse) were administered subcutaneously between the scapulae twice weekly, from one week prior to cell implantation to study completion. Tumor-implanted mice were divided into eleven treatment groups, each group containing six animals, and test agent administrations were initiated one day after cell implantation (denoted as Day 1). 3.1 Test Substances and Dosing Pattern
# Two control groups received intravenous injections of vehicle (25 mM Sodium Citrate, pH 6.5+100 mM NaCl) once weekly for either six weeks (group 1) or two weeks (group 2).
# Female (nu/nu) nude mice aged 6-7 weeks obtained from BioLasco Taiwan (under Charles River Laboratories Licensee) were used. The animals were housed in individually ventilated cages (IVG, 36 Mini Isolator System). The allocation for 3-5 animals was 27×20×14 in cm. All animals were maintained in a hygienic environment under controlled temperature (20-24° C.) and humidity (30-70%) with 12-hour light/dark cycle. Free access to standard lab diet (Oriental Yeast Co., Ltd., Japan) and autoclaved tap water were granted. All aspects of this work including housing, experimentation, and animal disposal were performed in general accordance with the “Guide for the Care and Use of Laboratory Animals: Eighth Edition” (National Academies Press, Washington, D.C., 2011) in our AAALAC-accredited laboratory animal facility. In addition, the animal care and use protocol was reviewed and approved by the IACUC at Eurofins Panlabs Taiwan, Ltd.
# The tumor volumes, body weights, mortality, and signs of overt toxicity were monitored and recorded twice weekly for 77 days. Tumor volume (mm^3) was calculated according to the formula for a prolate ellipsoid: length (mm)×[width (mm)]^2×0.5. Tumor growth inhibition was calculated as T/C (treatment/control)×100%. A T/C value≤42% was considered significant anti-tumor activity. Two-way ANOVA followed by Bonferroni test was used to ascertain the statistical significance of groups compared to respective vehicle control (*p<0.05).
smiles,measurement,setting,value
"CC[C@H](C)[C@@H]([C@@H](CC(=O)N1CCC[C@H]1[C@H](OC)[C@@H](C)C(=O)N[C@H](C)[C@@H](O)c1ccccc1)OC)N(C)C(=O)[C@@H](NC(=O)[C@@H](NC)C(C)C)C(C)C [MMAE, monomethyl auristatin E] (H-[NMeV]V[Dil][Dolaproine]-X1)","Body Weight (g), individual animals No. 1-6","0.057 mg/kg × 6, IV once weekly, Day 53",26 g (3×) and 28 g and 22 g and 24 g
same,"Body Weight (g), individual animals No. 1-6","0.057 mg/kg × 6, IV once weekly, Day 56",24 g and 27 g and 26 g (2×) and 23 g and 25 g
same,"Body Weight (g), individual animals No. 1-6","0.057 mg/kg × 6, IV once weekly, Day 60",27 g (3×) and 28 g and 24 g and 26 g
same,"Body Weight (g), individual animals No. 1-6","0.057 mg/kg × 6, IV once weekly, Day 63",27 g (2×) and 26 g (2×) and 29 g and 24 g
same,"Body Weight (g), individual animals No. 1-6","0.057 mg/kg × 6, IV once weekly, Day 67",27 g (2×) and 28 g (2×) and 26 g and 25 g
same,"Body Weight (g), individual animals No. 1-6","0.057 mg/kg × 6, IV once weekly, Day 70",27 g and 28 g (2×) and 25 g (2×) and 26 g
same,"Body Weight (g), Mean","0.057 mg/kg × 6, IV once weekly, Day 74, group mean",26.7 g
same,"Body Weight (g), individual animals No. 1-6","0.057 mg/kg × 6, IV once weekly, Day 74",27 g (2×) and 29 g and 24 g and 25 g and 28 g
same,"Body Weight (g), individual animals No. 1-6","0.057 mg/kg × 6, IV once weekly, Day 77",28 g and 29 g and 23 g and 27 g (2×) and 24 g
same,"Body Weight (g), individual mice","0.057 mg/kg × 6 IV once weekly, Day 1",23 g (2×) and 22 g (2×) and 24 g and 21 g
same,"Body Weight (g), Mean","0.057 mg/kg × 6 IV once weekly, Day 1, mean of 6 mice",22.5 g
same,"Body Weight (g), individual mice","0.057 mg/kg × 6 IV once weekly, Day 5",24 g (3×) and 22 g (3×)
same,"Body Weight (g), Mean","0.057 mg/kg × 6 IV once weekly, Day 5, mean of 6 mice",23.0 g
same,"Body Weight (g), individual mice","0.057 mg/kg × 6 IV once weekly, Day 8",26 g and 23 g (2×) and 24 g (2×) and 25 g
same,"Body Weight (g), Mean","0.057 mg/kg × 6 IV once weekly, Day 8, mean of 6 mice",24.2 g
same,"Body Weight (g), individual mice","0.057 mg/kg × 6 IV once weekly, Day 12",26 g and 24 g (2×) and 25 g (3×)
same,"Body Weight (g), individual mice","0.057 mg/kg × 6 IV once weekly, Day 15",27 g and 25 g (4×) and 26 g
same,"Body Weight (g), individual mice","0.057 mg/kg × 6 IV once weekly, Day 19",26 g and 24 g and 25 g (4×)
same,"Body Weight (g), Mean","0.057 mg/kg × 6 IV once weekly, Day 19, mean of 6 mice",25.0 g
same,"Body Weight (g), individual mice","0.057 mg/kg × 6 IV once weekly, Day 22",27 g and 25 g (2×) and 24 g and 26 g (2×)
same,"Body Weight (g), individual mice","0.057 mg/kg × 6 IV once weekly, Day 26",27 g and 25 g (2×) and 24 g (2×) and 26 g
